According to US20080113926A1, “9A-Carbamoyl-Y-Aminopropyl- And 9A-Thiocabamoyl-Y-Aminopropyl-Azalides With Antimalarial Activity” (priority 2005, published 2008):
In brackets after ≈: the same amount, converted by molar mass.

What was measured:
[1] = test system: Plasmodium falciparum TM91C235; experiment: In vitro antimalarial [3H]-hypoxanthine incorporation serial dilution assay, TM91C235; type: cell-based; details: P. falciparum TM91C235, parasites exposed for 72 hours; for IC50: Plasmodium falciparum
[2] = test system: Plasmodium falciparum clone CDC/Sierra Leone I (D-6); experiment: In vitro antimalarial [3H]-hypoxanthine incorporation serial dilution assay, D6; type: cell-based; details: P. falciparum D6, parasites exposed for 72 hours; for IC50: Plasmodium falciparum
Source text: (§1) The in vitro screens for intrinsic antimalarial activity were based on modifications of the procedures described by Desjardins R E, Canfield C J, Haynes J D, Chulay J D. (Quantitative assessment of antimalarial activity in vitro by a semiautomated microdilution technique. Antimicrob Agents Chemother. 1979 December; 16(6):710-8), Chulay J D, Haynes J D, Diggs C L. (Plasmodium falciparum: Assessment of in vitro growth by [3H]hypoxanthine incorporation. Exp. Parasitol. 1983 55:138-146), and Milhous W K, Weatherly N F, Bowdre J H, Desjardins R E. (In vitro activities of and mechanisms of resistance to antifol antimalarial drugs. Antimicrob Agents Chemother. 1985 April; 27(4):525-30). The system was limited to the assessment of the intrinsic activity against the erythrocytic asexual life cycle (blood schizontocides). Two Plasmodium falciparum clones from CDC/Indochina III (W-2) and CDC/Sierra Leone I (D-6) (Oduola A M, Weatherly N F, Bowdre J H, Desjardins R E. Plasmodium falciparum: cloning by single-erythrocyte micromanipulation and heterogeneity in vitro. Exp Parasitol. 1988 66(1):86-95) were used for all assays. TM91C235, a multiple drug resistant isolate from Thailand, was used for the prescreening assay. W-2 is resistant to chloroquine, quinine, and pyrimethamine and susceptible to mefloquine. D-6 tends to be more resistant to mefloquine and susceptible to chloroquine, quinine, and pyrimethamine. All documents cited in this paragraph are incorporated by reference in their entirety.
(§2) All parasites were maintained in continuous long term cultures in RPMI-1640 medium supplemented with 6% washed human A positive (A+) (erythrocytes, 25 mM Hepes, […], and 10% heat inactivated A+ human plasma or ALBUMAX® (lipid-rich bovine serum albumin; Invitrogen, Carlsbad, Calif.). All cultures and assays were conducted at 37° C. under an atmosphere of 5% CO2 and 5% O2, with a balance of N2.
(§3) The prescreening assay uses TM91C235 diluted at a 0.4% parasitemia in a 1% hematocrit in folic acid free and p-aminobenzoic acid free media RPMI-1640 and ALBUMAX®. One mg of the compound is typically dissolved in 100 μl of dimethyl sulfoxide (DMSO). The compound is further diluted in culture medium (FF) with ALBUMAX® for the first initial starting concentration. The rest of the stock drug solution was kept at −70° C. The isolate was preexposed, in duplicate, at three concentrations (25,000 ng/ml, 2,500 ng/ml, and 25 ng/ml) of the test compound for 48 hr in a 96-well microtiter plate (MTP) using the BIOMEK® 2000 automated laboratory workstation. Each MTP contains chloroquine as control to assess the relative activity of the compound and to monitor the response of TM91C235.
(§4) After the preincubation, [^3H]-hypoxanthine was added to each well of the MTP. (The assay relies on the incorporation of radiolabeled hypoxanthine by the parasites, which indicates reproduction, and inhibition of isotope incorporation was attributed to activity of known or candidate antimalarial drugs). After 72 hr of total incubation time, the MTP were frozen to lyse the erythrocytes and parasites. The parasite DNA was recovered by harvesting the lysate onto glass-fiber filter plates using a Packard FilterMate™ Cell Harvester. The radioactivity was counted on a Packard TopCount™ microplate scintillation counter. The results were recorded as counts per minutes (CPM) per well at each drug concentration divided by the arithmetic mean of the CPM from the three untreated infection parasite control wells.
(§5) The serial dilution assay was conducted using the same assay conditions and stock solution of the compound used for the preliminary screen, described above. Both the D-6 and the W-2 clones were used. The compounds were diluted two-fold over 11 different concentration ranges with a starting concentration that was based on the preliminary screen. […]

[3] = test system: Plasmodium falciparum clone CDC/Indochina III (W-2); experiment: In vitro antimalarial [3H]-hypoxanthine incorporation serial dilution assay, W2; type: cell-based; details: P. falciparum W2, parasites exposed for 72 hours; for IC50: Plasmodium falciparum, W2, 72 h
Source text: as §1, §2, §3, §4, §5

Plasmodium falciparum = details: non-immune patients, as compared to controls; cited from earlier work
Plasmodium vivax = details: non-immune patients, as compared to controls; cited from earlier work
Plasmodium cynomolgi = details: rhesus monkey; cited from earlier work
Plasmodium berghei = details: cited from earlier work
[4] = test system: Plasmodium yoelii nigeriensis; details: cited from earlier work

| Compound | IC50 [1] [µg/mL] | IC50 [2] [µg/mL] | IC50 [3] [µg/mL] | also measured |
| --- | --- | --- | --- | --- |
| CC[C@H]1OC(=O)[C@H](C)[C@@H](O[C@H]2C[C@@](C)(OC)[C@@H](O)[C@H](C)O2)[C@H](C)[C@@H](O[C@@H]2O[C@H](C)C[C@H](N(C)C)[C@H]2O)[C@](C)(O)C[C@@H](C)CN(CCCN(CCC#N)C(=O)Nc2cc(OC)c(OC)c(OC)c2)[C@H](C)[C@@H](O)[C@]1(C)O [Compound 16] | 0.272 (≈ 0.258 µM) | 0.487 (≈ 0.462 µM) | > 1.76 |  |
| CC[C@H]1OC(=O)[C@H](C)[C@@H](O[C@H]2C[C@@](C)(OC)[C@@H](O)[C@H](C)O2)[C@H](C)[C@@H](O[C@@H]2O[C@H](C)C[C@H](N(C)C)[C@H]2O)[C@](C)(O)C[C@@H](C)CN(CCCNC(=O)NCc2ccccc2)[C@H](C)[C@@H](O)[C@]1(C)O [Compound 17] | 0.278 (≈ 0.3 µM) | 0.566 (≈ 0.612 µM) | 0.351 (≈ 0.379 µM) |  |
| CC[C@H]1OC(=O)[C@H](C)[C@@H](O[C@H]2C[C@@](C)(OC)[C@@H](O)[C@H](C)O2)[C@H](C)[C@@H](O[C@@H]2O[C@H](C)C[C@H](N(C)C)[C@H]2O)[C@](C)(O)C[C@@H](C)CN(CCCN(CCC#N)C(=O)NCc2ccccc2)[C@H](C)[C@@H](O)[C@]1(C)O [Compound 18] | 0.522 (≈ 0.534 µM) | 0.776 (≈ 0.793 µM) | 0.405 (≈ 0.414 µM) |  |
| CC[C@H]1OC(=O)[C@H](C)[C@@H](O[C@H]2C[C@@](C)(OC)[C@@H](O)[C@H](C)O2)[C@H](C)[C@@H](O[C@@H]2O[C@H](C)C[C@H](N(C)C)[C@H]2O)[C@](C)(O)C[C@@H](C)CN(CCCN(CCC#N)C(=O)NC(C)C)[C@H](C)[C@@H](O)[C@]1(C)O [Compound 19] | 1.19 (≈ 1.28 µM) | > 0.797 | > 1.76 |  |
| CC[C@H]1OC(=O)[C@H](C)[C@@H](O[C@H]2C[C@@](C)(OC)[C@@H](O)[C@H](C)O2)[C@H](C)[C@@H](O[C@@H]2O[C@H](C)C[C@H](N(C)C)[C@H]2O)[C@](C)(O)C[C@@H](C)CN(CCCNC(=O)NS(=O)(=O)c2ccc(C)cc2)[C@H](C)[C@@H](O)[C@]1(C)O [Compound 20] | 1.06 (≈ 1.07 µM) | > 0.797 | > 1.76 |  |
| CC[C@H]1OC(=O)[C@H](C)[C@@H](O[C@H]2C[C@@](C)(OC)[C@@H](O)[C@H](C)O2)[C@H](C)[C@@H](O[C@@H]2O[C@H](C)C[C@H](N(C)C)[C@H]2O)[C@](C)(O)C[C@@H](C)CN(CCCNC(=O)NS(=O)(=O)c2ccccc2C)[C@H](C)[C@@H](O)[C@]1(C)O [Compound 21] | > 1.62 | 0.427 (≈ 0.432 µM) | 1 (≈ 1.01 µM) |  |
| CC[C@H]1OC(=O)[C@H](C)[C@@H](O[C@H]2C[C@@](C)(OC)[C@@H](O)[C@H](C)O2)[C@H](C)[C@@H](O[C@@H]2O[C@H](C)C[C@H](N(C)C)[C@H]2O)[C@](C)(O)C[C@@H](C)CN(CCCNC(=O)NS(=O)(=O)c2ccccc2Cl)[C@H](C)[C@@H](O)[C@]1(C)O [Compound 22] | 1.53 (≈ 1.52 µM) | > 0.797 | > 1.76 |  |
| CC[C@H]1OC(=O)[C@H](C)[C@@H](O[C@H]2C[C@@](C)(OC)[C@@H](O)[C@H](C)O2)[C@H](C)[C@@H](O[C@@H]2O[C@H](C)C[C@H](N(C)C)[C@H]2O)[C@](C)(O)C[C@@H](C)CN(CCCN(CCC#N)C(=O)Nc2ccccc2C(F)(F)F)[C@H](C)[C@@H](O)[C@]1(C)O [Compound 23] | 0.153 (≈ 0.148 µM) | 0.535 (≈ 0.518 µM) | 0.0626 (≈ 0.0606 µM) |  |
| CC[C@H]1OC(=O)[C@H](C)[C@@H](O[C@H]2C[C@@](C)(OC)[C@@H](O)[C@H](C)O2)[C@H](C)[C@@H](O[C@@H]2O[C@H](C)C[C@H](N(C)C)[C@H]2O)[C@](C)(O)C[C@@H](C)CN(CCCN(CCC#N)C(=O)Nc2cc(OC)c(OC)c(OC)c2)[C@H](C)[C@@H](O)[C@]1(C)O [Compound 24] |  |  |  | IC50 TM91C235 [1]: 0.2719 µg/mL (≈ 0.258 µM); IC50 D6 [2]: 0.4872 µg/mL (≈ 0.462 µM); IC50 W2 [3]: 1.7881 µg/mL (≈ 1.7 µM) |
| CC[C@H]1OC(=O)[C@H](C)[C@@H](O)[C@H](C)[C@@H](O[C@@H]2O[C@H](C)C[C@H](N(C)C)[C@H]2O)[C@](C)(O)C[C@@H](C)CN(CCCNC(=S)NCc2ccccc2)[C@H](C)[C@@H](O)[C@]1(C)O [Compound 25] | 1.21 (≈ 1.54 µM) | > 0.797 | > 1.76 |  |
| CC[C@H]1OC(=O)[C@H](C)[C@@H](O)[C@H](C)[C@@H](O[C@@H]2O[C@H](C)C[C@H](N(C)C)[C@H]2O)[C@](C)(O)C[C@@H](C)CN(CCCN(CCC#N)C(=O)NC(C)c2cccc3ccccc23)[C@H](C)[C@@H](O)[C@]1(C)O (stereo partly drawn) [Compound 26] | 0.39 (≈ 0.441 µM) | > 0.797 | 0.361 (≈ 0.408 µM) |  |
| CC[C@H]1OC(=O)[C@H](C)[C@@H](O)[C@H](C)[C@@H](O[C@@H]2O[C@H](C)C[C@H](N(C)C)[C@H]2O)[C@](C)(O)C[C@@H](C)CN(CCCNC(=O)Nc2ccc3ccccc3c2)[C@H](C)[C@@H](O)[C@]1(C)O [Compound 27] | 0.312 (≈ 0.389 µM) | 0.716 (≈ 0.891 µM) | 0.467 (≈ 0.582 µM) |  |
| CC[C@H]1OC(=O)[C@H](C)[C@@H](O)[C@H](C)[C@@H](O[C@@H]2O[C@H](C)C[C@H](N(C)C)[C@H]2O)[C@](C)(O)C[C@@H](C)CN(CCCNC(=S)NCCCc2ccccc2)[C@H](C)[C@@H](O)[C@]1(C)O [Compound 28] | 0.255 (≈ 0.314 µM) | 0.864 (≈ 1.06 µM) | 0.41 (≈ 0.506 µM) |  |
| CC[C@H]1OC(=O)[C@H](C)[C@@H](O)[C@H](C)[C@@H](O[C@@H]2O[C@H](C)C[C@H](N(C)C)[C@H]2O)[C@](C)(O)C[C@@H](C)CN(CCCNC(=S)Nc2cccc3ccccc23)[C@H](C)[C@@H](O)[C@]1(C)O [Compound 29] | 0.297 (≈ 0.363 µM) | 0.954 (≈ 1.16 µM) | 0.172 (≈ 0.21 µM) |  |
| CC[C@H]1OC(=O)[C@H](C)[C@@H](O)[C@H](C)[C@@H](O[C@@H]2O[C@H](C)C[C@H](N(C)C)[C@H]2O)[C@](C)(O)C[C@@H](C)CN(CCCNC(=O)Nc2cccc3ccccc23)[C@H](C)[C@@H](O)[C@]1(C)O [Compound 30] | 0.508 (≈ 0.633 µM) | > 0.797 | 0.471 (≈ 0.586 µM) |  |
| CC[C@H]1OC(=O)[C@H](C)[C@@H](O[C@H]2C[C@@](C)(OC)[C@@H](O)[C@H](C)O2)[C@H](C)[C@@H](O[C@@H]2O[C@H](C)C[C@H](N(C)C)[C@H]2O)[C@](C)(O)C[C@@H](C)CN(C)[C@H](C)[C@@H](O)[C@]1(C)O [azithromycin, reference compound] | 1.62 (≈ 2.16 µM) | 0.797 (≈ 1.06 µM) | 1.76 (≈ 2.35 µM) | prophylactic efficacy for Plasmodium falciparum (Plasmodium falciparum): 71.6%; prophylactic efficacy for Plasmodium vivax (Plasmodium vivax): 98.9%; efficacy in monkey model (Plasmodium cynomolgi): active |
| midecamycinin |  |  |  | activity in mouse model, Plasmodium berghei (Plasmodium berghei): active; activity in mouse model, Plasmodium yoelii nigeriensis [4]: active; efficacy in monkey model (Plasmodium cynomolgi): no efficacy |
